In ChEMBL document CHEMBL1132521, “Synthesis and hypoglycemic effect of chrysin derivatives” (Bioorg Med Chem Lett, 1999):

Experiments:
Mus musculus [1] = assay: In vivo hypoglycemic activity after administration (50 mg/kg) in mice on day 7 was determined; assay type: functional
[2] = Ratio of hypoglycemic activity in mice was tested on day 7.; assay type: functional
Mus musculus [3] = assay: In vivo hypoglycemic activity after administration (50 mg/kg) in mice on day 0 was determined; assay type: functional
Mus musculus [4] = assay: In vivo hypoglycemic activity after administration (45 mg/kg) in mice on day 0 was determined; assay type: functional
Mus musculus [5] = assay: In vivo hypoglycemic activity after administration (45 mg/kg) in mice on day 7 was determined; assay type: functional
Mus musculus [6] = assay: In vivo hypoglycemic activity after administration (40 mg/kg) in mice on day 7 was determined; assay type: functional
Mus musculus [7] = assay: In vivo hypoglycemic activity after administration (40 mg/kg) in mice on day 0 was determined; assay type: functional
Rattus norvegicus [8] = assay: Body weight was determined in rat after oral administration of 500 mg/kg on day 7; assay type: functional
Mus musculus [9] = assay: Body weight was determined in mouse after oral administration of 100 mg/kg on day 7; assay type: functional
Rattus norvegicus [10] = assay: Lung weight was determined in rat after oral administration of 500 mg/kg; assay type: functional; set-up: unit not given beside the values
Rattus norvegicus [11] = assay: Daily food consumption was determined in rat after oral administration of 500 mg/kg; assay type: functional
Mus musculus [12] = assay: Abnormal symptoms was determined in mouse after oral administration of 5 mg/kg; - sign indicates abnormal symptoms in treated mouse; assay type: functional, organism-based; set-up: dose 5 mg/kg
Mus musculus [13] = assay: Daily water consumption was determined in mouse after oral administration of 500 mg/kg; assay type: functional
Rattus norvegicus [14] = assay: Abnormal symptoms was determined in rat after oral administration of 500 mg/kg; - sign indicates abnormal symptoms in treated mouse; assay type: functional, organism-based; set-up: dose 500 mg/kg
Rattus norvegicus [15] = assay: Liver weight was determined in rat after oral administration of 500 mg/kg; assay type: functional; set-up: unit not given beside the values
Mus musculus [16] = assay: Body weight was determined in mouse after oral administration of 5 mg/kg on day 7; assay type: functional
Mus musculus [17] = assay: Body weight was determined in mouse after oral administration of 5 mg/kg on day 0; assay type: functional
Mus musculus [18] = assay: Body weight was determined in mouse after oral administration of 500 mg/kg on day 7; assay type: functional
Mus musculus [19] = assay: Body weight was determined in mouse after oral administration of 20 mg/kg on day 7; assay type: functional
Mus musculus [20] = assay: Body weight was determined in mouse after oral administration of 500 mg/kg on day 0; assay type: functional
Mus musculus [21] = assay: Daily food consumption was determined in mouse after oral administration of 20 mg/kg; assay type: functional
Mus musculus [22] = assay: Daily food consumption was determined in mouse after oral administration of 5 mg/kg; assay type: functional
Mus musculus [23] = assay: Abnormal symptoms was determined in mouse after oral administration of 100 mg/kg; - sign indicates abnormal symptoms in treated mouse; assay type: functional, organism-based; set-up: dose 100 mg/kg
Rattus norvegicus [24] = assay: Spleen weight was determined in rat after oral administration of 500 mg/kg; assay type: functional; set-up: unit not given beside the values
Mus musculus [25] = assay: Body weight was determined in mouse after oral administration of 100 mg/kg on day 0; assay type: functional
Rattus norvegicus [26] = assay: Daily water consumption was determined in rat after oral administration of 500 mg/kg; assay type: functional
Mus musculus [27] = assay: Daily water consumption was determined in mouse after oral administration of 5 mg/kg; assay type: functional
Mus musculus [28] = assay: Daily water consumption was determined in mouse after oral administration of 100 mg/kg; assay type: functional
Mus musculus [29] = assay: Abnormal symptoms was determined in mouse after oral administration of 20 mg/kg; - sign indicates abnormal symptoms in treated mouse; assay type: functional, organism-based; set-up: dose 20 mg/kg
Rattus norvegicus [30] = assay: Body weight was determined in rat after oral administration of 500 mg/kg on day 0; assay type: functional
Mus musculus [31] = assay: Abnormal symptoms was determined in mouse after oral administration of 500 mg/kg; - sign indicates abnormal symptoms in treated mouse; assay type: functional, organism-based; set-up: dose 500 mg/kg
Mus musculus [32] = assay: Daily food consumption was determined in mouse after oral administration of 500 mg/kg; assay type: functional
Mus musculus [33] = assay: Daily water consumption was determined in mouse after oral administration of 20 mg/kg; assay type: functional
Mus musculus [34] = assay: Daily food consumption was determined in mouse after oral administration of 100 mg/kg; assay type: functional
Mus musculus [35] = assay: Body weight was determined in mouse after oral administration of 20 mg/kg on day 0; assay type: functional
Rattus norvegicus [36] = assay: Kidney weight was determined in rat after oral administration of 500 mg/kg; assay type: functional

Row | Structure (SMILES) | Blood glucose (Mus musculus [1]) | Ratio [2] | Blood glucose (Mus musculus [3]) | Blood glucose (Mus musculus [6]) | Blood glucose (Mus musculus [7]) | Body weight (Rattus norvegicus [8]) | Body weight (Mus musculus [9]) | Organ weight (Rattus norvegicus [10]) | Food intake (Rattus norvegicus [11]) | Activity (Mus musculus [12]) | Water consumption (Mus musculus [13]) | Activity (Rattus norvegicus [14]) | Organ weight (Rattus norvegicus [15]) | Body weight (Mus musculus [16]) | Body weight (Mus musculus [17]) | Body weight (Mus musculus [18]) | Body weight (Mus musculus [19]) | Body weight (Mus musculus [20]) | Food intake (Mus musculus [21]) | Food intake (Mus musculus [22]) | further results
1 | COc1cc(O)c2c(=O)cc(-c3ccccc3)oc2c1 [TECHTOCHRYSIN] | 399.6 mg/dL | 87.8 | 455 mg/dL |  |  |  |  |  |  |  |  |  |  |  |  |  |  |  |  |  | 
2 | O=c1cc(-c2ccccc2)oc2cc(O)cc(O)c12 [CHRYSIN] |  | 104.4 |  |  |  |  |  |  |  |  |  |  |  |  |  |  |  |  |  |  | Blood glucose (Mus musculus [4]): 482.4 mg/dL; Blood glucose (Mus musculus [5]): 503.5 mg/dL
3 | COc1cc(OC)c2c(=O)cc(-c3ccccc3)oc2c1 [CHRYSIN DIMETHYL ETHER] |  | 89.9 |  | 399.5 mg/dL | 444.4 mg/dL |  |  |  |  |  |  |  |  |  |  |  |  |  |  |  | 
4 | CCCCCCCCOc1cc(O)c2c(=O)cc(-c3ccccc3)oc2c1 | 211.4 mg/dL | 51.4 | 411.2 mg/dL |  |  | 290.8 | 31.6 | 1.26 | 113.08 g | abnormal symptoms in treated mouse | 80.75 mL | abnormal symptoms in treated mouse | 9.96 | 30.8 | 23.8 | 30.1 | 32.1 | 24 | 52.57 g | 51.28 g | Activity (Mus musculus [23]): abnormal symptoms in treated mouse; Organ weight (Rattus norvegicus [24]): 0.69; Body weight (Mus musculus [25]): 24.8; Water consumption (Rattus norvegicus [26]): 205.91 mL; Water consumption (Mus musculus [27]): 79.83 mL; Water consumption (Mus musculus [28]): 82.83 mL; Activity (Mus musculus [29]): abnormal symptoms in treated mouse; Body weight (Rattus norvegicus [30]): 230.8; Activity (Mus musculus [31]): abnormal symptoms in treated mouse; Food intake (Mus musculus [32]): 50.6 g; Water consumption (Mus musculus [33]): 81.67 mL; Food intake (Mus musculus [34]): 51.41 g; Body weight (Mus musculus [35]): 25.5
5 | CCCCOc1cc(O)c2c(=O)cc(-c3ccccc3)oc2c1 | 252.4 mg/dL | 46.3 | 545.6 mg/dL |  |  | 293.3 | 31 | 1.22 | 113.58 | abnormal symptoms in treated mouse | 82.83 mL | abnormal symptoms in treated mouse | 10.74 | 32.7 | 24.9 | 31.3 | 30.6 | 24.3 | 52.81 | 51.91 | Organ weight (Rattus norvegicus [36]): 1.04; Activity (Mus musculus [23]): abnormal symptoms in treated mouse; Organ weight (Rattus norvegicus [24]): 0.71; Body weight (Mus musculus [25]): 23.5; Water consumption (Rattus norvegicus [26]): 197.16 mL; Water consumption (Mus musculus [27]): 82.5 mL; Water consumption (Mus musculus [28]): 80.92 mL; Activity (Mus musculus [29]): abnormal symptoms in treated mouse; Body weight (Rattus norvegicus [30]): 235; Activity (Mus musculus [31]): abnormal symptoms in treated mouse; Food intake (Mus musculus [32]): 50.4; Water consumption (Mus musculus [33]): 79.33 mL; Food intake (Mus musculus [34]): 50.53; Body weight (Mus musculus [35]): 23.8
6 | COc1ccc(/C=C/C(=O)Oc2cc(O)c3c(=O)cc(-c4ccccc4)oc3c2)cc1 |  | 70 |  | 333.3 mg/dL | 475.9 mg/dL |  |  |  |  |  |  |  |  |  |  |  |  |  |  |  | 
7 | Cc1ccc(C(=O)Oc2cc(O)c3c(=O)cc(-c4ccccc4)oc3c2)cc1 |  | 56.4 |  | 261.8 mg/dL | 464.3 mg/dL | 302.5 | 31.6 | 1.26 | 112.83 g | abnormal symptoms in treated mouse | 82.08 mL | abnormal symptoms in treated mouse | 9.6 | 32.2 | 25.1 | 31.2 | 31.4 | 24.8 | 50.6 g | 49.35 g | Organ weight (Rattus norvegicus [36]): 0.98; Activity (Mus musculus [23]): abnormal symptoms in treated mouse; Organ weight (Rattus norvegicus [24]): 0.66; Body weight (Mus musculus [25]): 25.2; Water consumption (Rattus norvegicus [26]): 216.83 mL; Water consumption (Mus musculus [27]): 80.42 mL; Water consumption (Mus musculus [28]): 83.75 mL; Activity (Mus musculus [29]): abnormal symptoms in treated mouse; Body weight (Rattus norvegicus [30]): 237.5; Activity (Mus musculus [31]): abnormal symptoms in treated mouse; Food intake (Mus musculus [32]): 49.86 g; Water consumption (Mus musculus [33]): 80.75 mL; Food intake (Mus musculus [34]): 50.78 g; Body weight (Mus musculus [35]): 24.7
8 | CC(=O)Oc1ccccc1C(=O)Oc1cc(O)c2c(=O)cc(-c3ccccc3)oc2c1 |  | 102.4 |  | 500.9 mg/dL | 489.3 mg/dL |  |  |  |  |  |  |  |  |  |  |  |  |  |  |  | 
